Consider 29 molecules from patent US9957271B2, “Substituted bicyclic aza-heterocycles and analogues as sirtuin modulators” (GlaxoSmithKline, LLC, priority 2012, dated 2018).

Assay [1] has as its target T1, SIRT1 (Homo sapiens, UniProt Q96EB6).
T1 sequence (Q96EB6 1-747): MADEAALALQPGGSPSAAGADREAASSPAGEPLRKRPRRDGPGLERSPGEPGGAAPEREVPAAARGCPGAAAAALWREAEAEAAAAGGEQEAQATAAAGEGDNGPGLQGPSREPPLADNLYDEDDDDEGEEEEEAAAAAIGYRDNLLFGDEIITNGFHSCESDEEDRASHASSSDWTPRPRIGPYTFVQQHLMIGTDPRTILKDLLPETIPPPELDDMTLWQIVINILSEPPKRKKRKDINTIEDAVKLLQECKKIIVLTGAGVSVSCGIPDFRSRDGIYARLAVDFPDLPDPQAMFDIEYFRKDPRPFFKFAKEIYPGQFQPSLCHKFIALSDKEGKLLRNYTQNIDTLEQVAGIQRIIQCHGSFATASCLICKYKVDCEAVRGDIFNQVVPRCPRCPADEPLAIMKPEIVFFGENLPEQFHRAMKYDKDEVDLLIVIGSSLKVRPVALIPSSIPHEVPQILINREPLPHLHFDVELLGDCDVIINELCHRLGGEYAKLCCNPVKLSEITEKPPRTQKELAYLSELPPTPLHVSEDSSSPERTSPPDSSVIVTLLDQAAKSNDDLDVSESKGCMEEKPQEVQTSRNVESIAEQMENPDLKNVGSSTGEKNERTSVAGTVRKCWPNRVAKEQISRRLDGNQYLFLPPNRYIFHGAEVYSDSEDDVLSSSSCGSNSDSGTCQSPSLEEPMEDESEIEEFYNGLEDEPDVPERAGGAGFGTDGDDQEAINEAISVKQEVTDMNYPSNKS
As to the kind of experiment: TAMRA based mass spectrometry assay of SIRT1 activity. The format is biochemical. Particulars: TAMRA assay; for TAMRA EC1.5 (μM): concentration giving 150% activation of SIRT1; for Emax: percent maximum fold activation, read-out: TAMRA % Fold Act. A digest of the protocol: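 Recombinant N-terminal His-tagged human SIRT1 (10 nM, E. coli) incubated 25 min at 25 °C with 0.5 μM 5TMR-labelled p53-derived acetyl-peptide and 120 μM βNAD+ in Tris-acetate pH 8 buffer with DTT and 0.05% BSA, compound at varying concentrations. Stopped with formic acid; deacetylated peptide or OAADPR measured by mass spectrometry relative to DMSO controls.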

Assay [2] deals with T1, SIRT1. Briefly: Trp mass spectrometry assay of SIRT1 activity. The format is biochemical. Particulars: Trp assay; for Trp EC1.5 (μM): concentration giving 150% activation of SIRT1; for Emax: percent maximum fold activation, read-out: Trp % Fold Act. In a few lines: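 His-tagged SIRT1 expressed in E. coli BL21(DE3), 10 nM, incubated 25 min at 25° C. with 0.5 μM Ac-RHKK(Ac)W-NH2 peptide and 120 μM βNAD+ in 50 mM HEPES pH 7.5, […], 1 mM DTT, 0.05% BSA; formic acid stop. OAADPR or deacetylated peptide measured by mass spectrometry; EC1.5 and percent maximum activation versus DMSO control.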

In the case of `O=C(Nc1cnc2ccc(-c3ccccc3OC(F)(F)F)nn12)c1ncccn1` [Compound 315], in assay [1], the “TAMRA EC1.5 (μM)” value is given as “A (EC1.5<1 μM)” and the Emax is at least 350%. Moreover, in assay [2], the “Trp EC1.5 (μM)” value is listed as “B (EC1.5 1-25 μM)” and the Emax was at least 350%.
As for `Cc1nc(C(=O)Nc2cnc3ccc(-c4ccccc4OC(F)(F)F)nn23)cs1` [Compound 317], in assay [1], the “TAMRA EC1.5 (μM)” value was “A (EC1.5<1 μM)” and the Emax was at least 350%. Moreover, in assay [2], the “Trp EC1.5 (μM)” value is recorded as “C (EC1.5>25 μM)” and the Emax is below 350%.
`Cc1cnc(C(=O)Nc2cnc3ccc(-c4ccccc4OC(F)(F)F)nn23)s1` [Compound 320]: in assay [1], the “TAMRA EC1.5 (μM)” value was “A (EC1.5<1 μM)” and the Emax was at least 350%. In assay [2], the “Trp EC1.5 (μM)” value is listed as “B (EC1.5 1-25 μM)” and the Emax was below 350%.
For the molecule `O=C(Nc1cnc2ccc(-c3ccccc3OC(F)(F)F)nn12)c1cccc(N2CCOCC2)n1` [Compound 321], in assay [1], the “TAMRA EC1.5 (μM)” value is listed as “A (EC1.5<1 μM)” and the Emax is at least 350%. In assay [2], the “Trp EC1.5 (μM)” value is “A (EC1.5<1 μM)” and the Emax is at least 350%.
Regarding `O=C(Nc1cnc2ccc(-c3ccccc3OC(F)(F)F)nn12)c1cccc(OCC(O)CO)n1` (centres unmarked) [Compound 323], in assay [1], the “TAMRA EC1.5 (μM)” value was “A (EC1.5<1 μM)” and the Emax is at least 350%. Also, in assay [2], the “Trp EC1.5 (μM)” value is listed as “A (EC1.5<1 μM)” and the Emax was at least 350%.
For the molecule `CCNc1cccc(NC(=O)c2cnc3ccc(-c4ccccc4Cl)nn23)n1` [Compound 326], in assay [1], the “TAMRA EC1.5 (μM)” value is “A (EC1.5<1 μM)” and the Emax is at least 350%. Also, in assay [2], the “Trp EC1.5 (μM)” value is “A (EC1.5<1 μM)” and the Emax is below 350%.
Regarding `CCNc1cccc(NC(=O)c2cnc3ccc(-c4ccccc4F)nn23)n1` [Compound 327], in assay [1], the “TAMRA EC1.5 (μM)” value is given as “A (EC1.5<1 μM)” and the Emax is at least 350%. In addition, in assay [2], the “Trp EC1.5 (μM)” value is “A (EC1.5<1 μM)” and the Emax was below 350%.
`N#Cc1ccccc1-c1ccc2ncc(NC(=O)c3cnccn3)n2n1` [Compound 329]: in assay [1], the “TAMRA EC1.5 (μM)” value is recorded as “B (EC1.5 1-25 μM)” and the Emax was below 350%. For the same molecule, in assay [2], the “Trp EC1.5 (μM)” value is “C (EC1.5>25 μM)” and the Emax is below 350%.
Consider `N#Cc1ccccc1-c1ccc2ncc(NC(=O)c3cscn3)n2n1` [Compound 332], for which, in assay [1], the “TAMRA EC1.5 (μM)” value was “B (EC1.5 1-25 μM)” and the Emax is below 350%. Further, in assay [2], the “Trp EC1.5 (μM)” value is “C (EC1.5>25 μM)” and the Emax is below 350%.
In the case of `N#Cc1ccccc1-c1ccc2ncc(NC(=O)c3nccs3)n2n1` [Compound 335], in assay [1], the “TAMRA EC1.5 (μM)” value is recorded as “B (EC1.5 1-25 μM)” and the Emax is below 350%. For the same molecule, in assay [2], the “Trp EC1.5 (μM)” value is recorded as “B (EC1.5 1-25 μM)” and the Emax was below 350%.
In the case of `N#Cc1ccccc1-c1ccc2ncc(NC(=O)c3cccc(N4CCC4)n3)n2n1` [Compound 338], in assay [1], the “TAMRA EC1.5 (μM)” value is listed as “A (EC1.5<1 μM)” and the Emax is at least 350%. In assay [2], the “Trp EC1.5 (μM)” value is listed as “A (EC1.5<1 μM)” and the Emax was below 350%.
As for `N#Cc1ccccc1-c1ccc2ncc(NC(=O)c3cccc(OCC(O)CO)n3)n2n1` (centres unmarked) [Compound 339], in assay [1], the “TAMRA EC1.5 (μM)” value is given as “A (EC1.5<1 μM)” and the Emax is at least 350%. Also, in assay [2], the “Trp EC1.5 (μM)” value is listed as “A (EC1.5<1 μM)” and the Emax was below 350%.
In the case of `CC1(COc2ccnc(NC(=O)c3cnc4ccc(-c5ccccc5C(F)(F)F)nn34)n2)COC1` [Compound 340], in assay [1], the “TAMRA EC1.5 (μM)” value is “A (EC1.5<1 μM)” and the Emax is at least 350%. Besides, in assay [2], the “Trp EC1.5 (μM)” value was “A (EC1.5<1 μM)” and the Emax was at least 350%.
With `Cc1nc2ccc(-c3ccccc3Cl)nn2c1NC(=O)c1ccccn1` [Compound 346], in assay [1], the “TAMRA EC1.5 (μM)” value was “B (EC1.5 1-25 μM)” and the Emax was below 350%. Moreover, in assay [2], the “Trp EC1.5 (μM)” value is listed as “C (EC1.5>25 μM)” and the Emax was below 350%.
As for `Cc1nc2ccc(-c3ccccc3Cl)nn2c1NC(=O)c1ccncn1` [Compound 348], in assay [1], the “TAMRA EC1.5 (μM)” value is listed as “C (EC1.5>25 μM)” and the Emax is below 350%. Also, in assay [2], the “Trp EC1.5 (μM)” value is “C (EC1.5>25 μM)” and the Emax was below 350%.
As to `Cc1nc(C(=O)Nc2c(C)nc3ccc(-c4ccccc4Cl)nn23)cs1` [Compound 351], in assay [1], the “TAMRA EC1.5 (μM)” value is listed as “B (EC1.5 1-25 μM)” and the Emax was below 350%. Besides, in assay [2], the “Trp EC1.5 (μM)” value is “C (EC1.5>25 μM)” and the Emax was below 350%.
Turning to `Cc1nc(C(=O)Nc2c(C)nc3ccc(-c4ccccc4Cl)nn23)c(C)s1` [Compound 352], in assay [1], the “TAMRA EC1.5 (μM)” value was “B (EC1.5 1-25 μM)” and the Emax was below 350%. Moreover, in assay [2], the “Trp EC1.5 (μM)” value was “C (EC1.5>25 μM)” and the Emax is below 350%.
In the case of `Cc1cnc(C(=O)Nc2c(C)nc3ccc(-c4ccccc4Cl)nn23)s1` [Compound 354], in assay [1], the “TAMRA EC1.5 (μM)” value is recorded as “B (EC1.5 1-25 μM)” and the Emax was below 350%. Moreover, in assay [2], the “Trp EC1.5 (μM)” value was “C (EC1.5>25 μM)” and the Emax is below 350%.
`Cc1nc2ccc(-c3ccccc3Cl)nn2c1NC(=O)c1cccc(OCC(O)CO)n1` (centres unmarked) [Compound 357]: in assay [1], the “TAMRA EC1.5 (μM)” value is listed as “C (EC1.5>25 μM)” and the Emax was below 350%. In assay [2], the “Trp EC1.5 (μM)” value is “C (EC1.5>25 μM)” and the Emax was below 350%.
Turning to `O=C(Nc1ccncn1)c1cnc2ccc(-c3ccccc3OC(F)(F)F)nn12` [Compound 358], in assay [1], the “TAMRA EC1.5 (μM)” value was “A (EC1.5<1 μM)” and the Emax is at least 350%. Further, in assay [2], the “Trp EC1.5 (μM)” value is listed as “B (EC1.5 1-25 μM)” and the Emax is at least 350%.
Regarding `O=C(Nc1ccc(F)cn1)c1cnc2ccc(-c3ccccc3OC(F)(F)F)nn12` [Compound 360], in assay [1], the “TAMRA EC1.5 (μM)” value was “B (EC1.5 1-25 μM)” and the Emax was below 350%. In addition, in assay [2], the “Trp EC1.5 (μM)” value is recorded as “A (EC1.5<1 μM)” and the Emax was below 350%.
Consider `Cc1cc(NC(=O)c2cnc3ccc(-c4ccccc4OC(F)(F)F)nn23)ccn1` [Compound 364], for which, in assay [1], the “TAMRA EC1.5 (μM)” value was “A (EC1.5<1 μM)” and the Emax is at least 350%. In addition, in assay [2], the “Trp EC1.5 (μM)” value was “A (EC1.5<1 μM)” and the Emax was at least 350%.
As to `Cc1cccc(NC(=O)c2cnc3ccc(-c4ccccc4OCC(O)CO)nn23)n1` (centres unmarked) [Compound 369], in assay [1], the “TAMRA EC1.5 (μM)” value is “A (EC1.5<1 μM)” and the Emax is at least 350%. Further, in assay [2], the “Trp EC1.5 (μM)” value is “B (EC1.5 1-25 μM)” and the Emax is at least 350%.
For `O=C(Nc1cccc(N2CCOCC2)n1)c1cnc2ccc(-c3cccc(OCC(O)CO)c3)nn12` (centres unmarked) [Compound 372], in assay [1], the “TAMRA EC1.5 (μM)” value was “A (EC1.5<1 μM)” and the Emax was at least 350%. Further, in assay [2], the “Trp EC1.5 (μM)” value is listed as “A (EC1.5<1 μM)” and the Emax was below 350%.
Regarding `Cc1nc2ccc(-c3ccccc3C(F)(F)F)nn2c1NC(=O)c1ccccn1` [Compound 375], in assay [1], the “TAMRA EC1.5 (μM)” value was “B (EC1.5 1-25 μM)” and the Emax was at least 350%. In assay [2], the “Trp EC1.5 (μM)” value is on record as “C (EC1.5>25 μM)” and the Emax was below 350%.
The matching figures for `Cc1nc2ccc(-c3ccccc3C(F)(F)F)nn2c1NC(=O)c1ccncn1` [Compound 377]: “B (EC1.5 1-25 μM)”, below 350%, “C (EC1.5>25 μM)” and below 350%.
The matching figures for `Cc1nc2ccc(-c3ccccc3C(F)(F)F)nn2c1NC(=O)c1nccs1` [Compound 380]: “B (EC1.5 1-25 μM)”, at least 350%, “C (EC1.5>25 μM)” and below 350%.
The matching figures for `Cc1cnc(C(=O)Nc2c(C)nc3ccc(-c4ccccc4C(F)(F)F)nn23)s1` [Compound 381]: “B (EC1.5 1-25 μM)”, at least 350%, “C (EC1.5>25 μM)” and below 350%.
On to `Cc1nc2ccc(-c3ccccc3C(F)(F)F)nn2c1NC(=O)c1cccc(N2CCC2)n1` [Compound 383], for which, in assay [1], the “TAMRA EC1.5 (μM)” value is “A (EC1.5<1 μM)” and the Emax is at least 350%. In assay [2], the “Trp EC1.5 (μM)” value was “B (EC1.5 1-25 μM)” and the Emax was at least 350%.
